Experimental data taken from paper PMC11233931, “Remodeling tumor‐associated macrophage for anti‐cancer effects by rational design of irreversible inhibition of mitogen‐activated protein kinase‐activated protein kinase 2” (MedComm, 2024).

Assays:
Experiment in all cases: Eurofins kinase selectivity profile against 380 other human recombinant kinases (Table S2)
Type in all cases: biochemical
[1] = target: T1, 380 human recombinant protein kinases (Homo sapiens, UniProt Q02156); details: PKCε(h), read-out: Inhibition rate
T1 construct: purchased Eurofins (Celle Lévescault)
T1 sequence (Q02156 1-737): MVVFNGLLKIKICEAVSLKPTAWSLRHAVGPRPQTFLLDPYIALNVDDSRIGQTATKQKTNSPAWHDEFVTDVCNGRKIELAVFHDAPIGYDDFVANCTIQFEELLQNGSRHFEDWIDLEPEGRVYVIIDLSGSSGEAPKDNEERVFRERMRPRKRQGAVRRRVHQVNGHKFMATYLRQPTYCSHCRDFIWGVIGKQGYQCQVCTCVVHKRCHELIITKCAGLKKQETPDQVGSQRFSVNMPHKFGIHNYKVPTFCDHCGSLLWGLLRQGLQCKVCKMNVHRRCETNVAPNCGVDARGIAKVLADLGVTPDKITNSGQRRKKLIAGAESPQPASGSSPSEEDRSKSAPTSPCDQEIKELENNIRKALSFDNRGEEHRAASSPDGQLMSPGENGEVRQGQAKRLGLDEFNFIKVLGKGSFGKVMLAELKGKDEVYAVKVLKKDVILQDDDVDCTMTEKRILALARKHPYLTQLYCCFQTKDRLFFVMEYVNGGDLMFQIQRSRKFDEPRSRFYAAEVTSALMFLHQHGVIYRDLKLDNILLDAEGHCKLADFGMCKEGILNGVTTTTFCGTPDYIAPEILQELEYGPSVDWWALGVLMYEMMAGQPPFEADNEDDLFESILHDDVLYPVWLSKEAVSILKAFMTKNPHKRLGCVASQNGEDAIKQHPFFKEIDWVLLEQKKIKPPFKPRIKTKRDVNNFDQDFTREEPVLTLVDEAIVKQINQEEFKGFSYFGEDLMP
Method: (§1) Subsequently, to ascertain whether the high potency of compound 11 was specific for MK2, an additional 380 human recombinant protein kinases were screened.
(§2) To assess the impact of various compounds on MK2 kinase activity, we utilized the ADP‐Glo Assay Kit (Promega) following the manufacturer's instructions. Luminescence measurements were taken using a SpectraMax Paradigm reader. The inhibition percentage was calculated using the following formula: ((specific signalDMSO control − specific signal inhibitor)/(specific signalDMSO control)) × 100%. The IC50 values were determined employing dose–response curve fitting via Prism (Graph Pad). Additionally, Eurofins company (Celle Lévescault) conducted the analysis on compound 11’s inhibitory activity against 380 other human recombinant kinases at various concentrations.

[2] = target: T2, 380 human recombinant protein kinases (Homo sapiens, UniProt P08581); details: Met(h), read-out: Inhibition rate
T2 construct: purchased Eurofins (Celle Lévescault)
T2 sequence (P08581 25-1390): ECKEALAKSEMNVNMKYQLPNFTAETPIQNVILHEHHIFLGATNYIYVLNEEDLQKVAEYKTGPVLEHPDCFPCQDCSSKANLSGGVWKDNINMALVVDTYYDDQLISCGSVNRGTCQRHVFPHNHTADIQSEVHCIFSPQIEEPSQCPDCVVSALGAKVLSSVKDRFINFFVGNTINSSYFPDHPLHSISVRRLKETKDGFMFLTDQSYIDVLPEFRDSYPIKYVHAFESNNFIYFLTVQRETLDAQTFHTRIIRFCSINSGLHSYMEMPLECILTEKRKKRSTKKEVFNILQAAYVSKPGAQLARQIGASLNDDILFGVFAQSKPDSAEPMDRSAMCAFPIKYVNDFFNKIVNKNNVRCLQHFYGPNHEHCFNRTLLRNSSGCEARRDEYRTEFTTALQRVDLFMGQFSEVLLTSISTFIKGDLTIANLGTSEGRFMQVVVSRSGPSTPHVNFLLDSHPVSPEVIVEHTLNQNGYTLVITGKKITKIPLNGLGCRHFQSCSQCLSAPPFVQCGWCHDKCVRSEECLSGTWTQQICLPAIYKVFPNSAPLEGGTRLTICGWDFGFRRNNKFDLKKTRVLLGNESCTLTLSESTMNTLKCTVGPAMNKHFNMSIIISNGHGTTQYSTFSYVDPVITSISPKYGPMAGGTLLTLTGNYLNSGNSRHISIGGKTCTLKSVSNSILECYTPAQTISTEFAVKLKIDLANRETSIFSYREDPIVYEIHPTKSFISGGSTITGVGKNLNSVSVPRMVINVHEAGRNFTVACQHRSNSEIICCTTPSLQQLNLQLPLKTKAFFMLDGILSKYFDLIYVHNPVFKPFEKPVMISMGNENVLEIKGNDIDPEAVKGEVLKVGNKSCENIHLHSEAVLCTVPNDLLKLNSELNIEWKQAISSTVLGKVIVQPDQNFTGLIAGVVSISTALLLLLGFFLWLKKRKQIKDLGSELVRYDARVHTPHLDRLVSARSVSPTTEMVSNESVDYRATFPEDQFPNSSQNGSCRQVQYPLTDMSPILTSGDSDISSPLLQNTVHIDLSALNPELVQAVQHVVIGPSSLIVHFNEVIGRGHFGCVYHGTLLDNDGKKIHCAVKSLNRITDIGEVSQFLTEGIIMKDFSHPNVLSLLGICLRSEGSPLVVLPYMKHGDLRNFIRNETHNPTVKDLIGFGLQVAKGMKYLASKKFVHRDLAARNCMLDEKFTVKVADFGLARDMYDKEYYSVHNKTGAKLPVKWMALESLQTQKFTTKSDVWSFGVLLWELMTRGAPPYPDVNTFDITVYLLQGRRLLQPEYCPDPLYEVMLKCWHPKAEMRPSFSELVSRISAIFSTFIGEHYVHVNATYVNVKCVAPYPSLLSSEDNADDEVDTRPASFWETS
Method: as §1, §2

[3] = target: T3, 380 human recombinant protein kinases (Homo sapiens, UniProt Q9BYT3); details: STK33(h), read-out: Inhibition rate (%)
T3 construct: purchased Eurofins (Celle Lévescault)
T3 sequence (Q9BYT3 whole entry): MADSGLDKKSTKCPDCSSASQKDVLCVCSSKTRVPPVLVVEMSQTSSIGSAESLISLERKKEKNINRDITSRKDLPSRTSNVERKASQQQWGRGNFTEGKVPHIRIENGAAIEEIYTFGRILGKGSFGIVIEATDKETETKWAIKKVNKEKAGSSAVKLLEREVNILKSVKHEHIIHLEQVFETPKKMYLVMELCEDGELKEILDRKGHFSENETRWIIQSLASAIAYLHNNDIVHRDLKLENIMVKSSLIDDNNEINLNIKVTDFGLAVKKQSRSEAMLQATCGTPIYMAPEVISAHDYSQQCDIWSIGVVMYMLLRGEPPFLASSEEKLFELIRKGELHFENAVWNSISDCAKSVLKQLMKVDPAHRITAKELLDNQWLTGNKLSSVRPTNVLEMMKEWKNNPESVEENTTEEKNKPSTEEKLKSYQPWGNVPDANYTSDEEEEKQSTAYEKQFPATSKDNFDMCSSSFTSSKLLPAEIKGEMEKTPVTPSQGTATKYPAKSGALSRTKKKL
Method: as §1, §2

[4] = target: T4, 380 human recombinant protein kinases (Homo sapiens, UniProt P57059); details: SIK(h), read-out: Inhibition rate (%)
T4 construct: purchased Eurofins (Celle Lévescault)
T4 sequence (P57059 whole entry): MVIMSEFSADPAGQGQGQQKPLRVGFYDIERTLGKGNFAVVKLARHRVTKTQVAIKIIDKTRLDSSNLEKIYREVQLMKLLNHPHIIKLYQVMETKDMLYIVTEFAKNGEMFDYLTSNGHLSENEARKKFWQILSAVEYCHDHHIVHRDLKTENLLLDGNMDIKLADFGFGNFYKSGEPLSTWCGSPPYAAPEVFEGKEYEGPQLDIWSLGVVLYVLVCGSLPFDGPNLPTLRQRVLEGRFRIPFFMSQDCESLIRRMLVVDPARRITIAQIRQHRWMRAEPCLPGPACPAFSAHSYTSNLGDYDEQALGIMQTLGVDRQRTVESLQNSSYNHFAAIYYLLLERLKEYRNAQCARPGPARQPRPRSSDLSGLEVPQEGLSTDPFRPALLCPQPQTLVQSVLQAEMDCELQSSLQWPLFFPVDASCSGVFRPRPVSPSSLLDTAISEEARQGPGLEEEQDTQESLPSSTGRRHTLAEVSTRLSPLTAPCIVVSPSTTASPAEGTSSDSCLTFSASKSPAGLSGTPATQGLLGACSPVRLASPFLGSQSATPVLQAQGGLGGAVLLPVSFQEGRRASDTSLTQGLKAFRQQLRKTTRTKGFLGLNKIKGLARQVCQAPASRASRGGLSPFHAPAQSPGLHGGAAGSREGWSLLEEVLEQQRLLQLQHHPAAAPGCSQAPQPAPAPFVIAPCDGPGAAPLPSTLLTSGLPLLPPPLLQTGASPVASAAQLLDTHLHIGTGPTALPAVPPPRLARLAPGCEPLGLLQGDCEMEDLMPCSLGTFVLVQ
Method: as §1, §2

[5] = target: T5, 380 human recombinant protein kinases (Homo sapiens, UniProt Q6IQ55); details: TTBK2(h), read-out: Inhibition rate (%)
T5 construct: purchased Eurofins (Celle Lévescault)
T5 sequence (Q6IQ55 whole entry): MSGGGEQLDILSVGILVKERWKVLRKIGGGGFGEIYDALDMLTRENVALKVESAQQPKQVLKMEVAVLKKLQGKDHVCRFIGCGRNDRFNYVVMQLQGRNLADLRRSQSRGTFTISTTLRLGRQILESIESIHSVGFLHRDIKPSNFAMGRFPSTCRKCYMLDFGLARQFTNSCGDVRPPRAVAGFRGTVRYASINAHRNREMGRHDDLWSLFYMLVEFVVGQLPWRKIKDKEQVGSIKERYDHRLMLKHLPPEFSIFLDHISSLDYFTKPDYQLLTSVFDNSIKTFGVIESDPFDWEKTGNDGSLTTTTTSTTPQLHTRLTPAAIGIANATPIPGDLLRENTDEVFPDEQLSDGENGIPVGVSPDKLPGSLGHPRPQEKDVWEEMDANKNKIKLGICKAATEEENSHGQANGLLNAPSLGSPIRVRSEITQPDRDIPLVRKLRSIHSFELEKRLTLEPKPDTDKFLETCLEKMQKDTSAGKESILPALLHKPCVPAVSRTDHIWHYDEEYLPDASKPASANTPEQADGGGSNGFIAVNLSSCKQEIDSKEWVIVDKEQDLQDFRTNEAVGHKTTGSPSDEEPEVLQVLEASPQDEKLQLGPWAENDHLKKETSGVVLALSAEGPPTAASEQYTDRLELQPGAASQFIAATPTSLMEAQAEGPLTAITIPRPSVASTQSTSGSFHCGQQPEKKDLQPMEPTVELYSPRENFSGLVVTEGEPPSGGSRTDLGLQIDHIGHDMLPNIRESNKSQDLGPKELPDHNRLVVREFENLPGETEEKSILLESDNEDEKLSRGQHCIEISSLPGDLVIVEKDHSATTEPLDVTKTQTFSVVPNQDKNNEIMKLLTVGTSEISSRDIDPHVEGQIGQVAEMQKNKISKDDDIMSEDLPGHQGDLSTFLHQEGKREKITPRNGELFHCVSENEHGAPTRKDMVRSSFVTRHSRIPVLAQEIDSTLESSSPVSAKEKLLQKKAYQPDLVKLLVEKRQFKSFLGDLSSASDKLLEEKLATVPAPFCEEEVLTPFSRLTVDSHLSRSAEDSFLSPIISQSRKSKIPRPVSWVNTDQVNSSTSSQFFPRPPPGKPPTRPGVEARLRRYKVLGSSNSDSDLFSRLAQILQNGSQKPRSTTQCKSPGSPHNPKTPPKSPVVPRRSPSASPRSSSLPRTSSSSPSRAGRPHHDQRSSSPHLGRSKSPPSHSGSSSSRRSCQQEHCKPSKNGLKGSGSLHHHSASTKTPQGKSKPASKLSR
Method: as §1, §2

[6] = target: T6, 380 human recombinant protein kinases (Homo sapiens, UniProt P17252); details: PKCα(h), read-out: Inhibition rate
T6 construct: purchased Eurofins (Celle Lévescault)
Method: as §1, §2

[7] = target: T7, 380 human recombinant protein kinases (Homo sapiens, UniProt Q99986); details: VRK1(h), read-out: Inhibition rate (%)
T7 construct: purchased Eurofins (Celle Lévescault)
T7 sequence (Q99986 1-396): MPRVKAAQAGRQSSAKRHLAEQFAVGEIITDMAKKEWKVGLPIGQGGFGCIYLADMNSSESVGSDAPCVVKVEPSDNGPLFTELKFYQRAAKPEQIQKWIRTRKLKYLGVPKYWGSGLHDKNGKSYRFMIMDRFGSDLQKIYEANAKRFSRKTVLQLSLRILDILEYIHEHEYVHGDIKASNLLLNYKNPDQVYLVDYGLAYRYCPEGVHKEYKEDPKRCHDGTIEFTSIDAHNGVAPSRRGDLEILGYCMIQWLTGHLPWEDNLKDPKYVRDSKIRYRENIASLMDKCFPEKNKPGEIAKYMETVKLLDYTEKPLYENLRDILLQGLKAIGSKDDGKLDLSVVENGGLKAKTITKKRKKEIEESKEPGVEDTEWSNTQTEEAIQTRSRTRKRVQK
Method: as §1, §2

[8] = target: T8, 380 human recombinant protein kinases (Homo sapiens, UniProt P07948); details: Lyn(h), read-out: Inhibition rate
T8 construct: purchased Eurofins (Celle Lévescault)
T8 sequence (P07948 whole entry): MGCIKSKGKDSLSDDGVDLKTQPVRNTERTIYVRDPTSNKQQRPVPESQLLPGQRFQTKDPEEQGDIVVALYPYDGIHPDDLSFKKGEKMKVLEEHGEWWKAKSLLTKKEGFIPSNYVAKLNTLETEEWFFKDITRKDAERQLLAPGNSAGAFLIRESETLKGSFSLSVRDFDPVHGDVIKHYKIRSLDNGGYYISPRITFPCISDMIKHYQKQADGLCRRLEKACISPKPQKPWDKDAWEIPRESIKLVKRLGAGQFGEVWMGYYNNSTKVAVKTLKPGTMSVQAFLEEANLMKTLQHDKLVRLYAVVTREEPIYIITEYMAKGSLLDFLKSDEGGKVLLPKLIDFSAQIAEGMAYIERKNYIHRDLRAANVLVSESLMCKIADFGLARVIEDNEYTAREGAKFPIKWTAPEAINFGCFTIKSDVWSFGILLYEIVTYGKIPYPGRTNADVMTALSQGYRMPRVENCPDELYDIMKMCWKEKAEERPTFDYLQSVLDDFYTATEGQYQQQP
Method: as §1, §2

[9] = target: T9, 380 human recombinant protein kinases (Homo sapiens, UniProt Q9Y2U5); details: MEKK2(h), read-out: Inhibition rate
T9 construct: purchased Eurofins (Celle Lévescault)
T9 sequence (Q9Y2U5 1-619): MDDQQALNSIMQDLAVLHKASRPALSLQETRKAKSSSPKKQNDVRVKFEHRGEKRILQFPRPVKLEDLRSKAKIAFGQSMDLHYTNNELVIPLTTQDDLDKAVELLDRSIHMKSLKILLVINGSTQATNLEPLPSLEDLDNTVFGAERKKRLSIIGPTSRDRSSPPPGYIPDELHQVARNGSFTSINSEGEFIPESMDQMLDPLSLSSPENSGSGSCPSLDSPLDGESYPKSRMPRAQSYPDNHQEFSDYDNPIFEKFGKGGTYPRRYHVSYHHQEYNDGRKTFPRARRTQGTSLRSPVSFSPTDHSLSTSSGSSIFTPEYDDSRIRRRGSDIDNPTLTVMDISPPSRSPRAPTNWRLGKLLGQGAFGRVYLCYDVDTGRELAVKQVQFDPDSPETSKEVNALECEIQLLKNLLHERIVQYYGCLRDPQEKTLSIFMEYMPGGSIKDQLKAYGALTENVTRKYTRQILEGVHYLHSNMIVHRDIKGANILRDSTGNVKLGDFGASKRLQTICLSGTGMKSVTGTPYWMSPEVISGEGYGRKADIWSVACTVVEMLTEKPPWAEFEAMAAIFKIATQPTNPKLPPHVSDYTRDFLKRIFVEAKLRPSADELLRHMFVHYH
Method: as §1, §2

For `C=CC(=O)Nc1cc(-c2cc(-c3cc4c([nH]3)CCNC4=O)ccn2)ccc1OC(F)(F)F` [compound 11], the inhibition at 0.01 µM ([1]; 10 nM) was 1%, the inhibition at 0.1 µM ([1]; 100 nM) was 12% and the inhibition at 1 µM ([1]; 1000 nM) was 13%. For the same compound, the inhibition at 0.01 µM ([2]; 10 nM) was 6%, the inhibition at 0.1 µM ([2]; 100 nM) was 21% and the inhibition at 1 µM ([2]; 1000 nM) was 62%. For the same compound, the inhibition at 0.01 µM ([3]; 10 nM) was 8%, the inhibition at 0.1 µM ([3]; 100 nM) was 18% and the inhibition at 1 µM ([3]; 1000 nM) was 64%. It also gave an inhibition at 0.01 µM ([4]; 10 nM) of 2%, an inhibition at 0.1 µM ([4]; 100 nM) of 4% and an inhibition at 1 µM ([4]; 1000 nM) of -3%. The inhibition at 0.01 µM ([5]; 10 nM) was -1%, the inhibition at 0.1 µM ([5]; 100 nM) was -3% and the inhibition at 1 µM ([5]; 1000 nM) was 3%. For the same compound, the inhibition at 0.01 µM ([6]; 10 nM) was 5%, the inhibition at 0.1 µM ([6]; 100 nM) was 14% and the inhibition at 1 µM ([6]; 1000 nM) was 6%. For the same compound, the inhibition at 0.01 µM ([7]; 10 nM) was 1%, the inhibition at 0.1 µM ([7]; 100 nM) was 1% and the inhibition at 1 µM ([7]; 1000 nM) was 5%. It also gave an inhibition at 0.01 µM ([8]; 10 nM) of -1%, an inhibition at 0.1 µM ([8]; 100 nM) of -11% and an inhibition at 1 µM ([8]; 1000 nM) of -11%. The inhibition at 0.01 µM ([9]; 10 nM) was -3%, the inhibition at 0.1 µM ([9]; 100 nM) was 2% and the inhibition at 1 µM ([9]; 1000 nM) was -2%.
